According to US20220251044A1, “CRYSTAL FORM OF HYPOXIA-INDUCIBLE FACTOR-PROLYL HYDROXYLASE INHIBITOR” (CRYSTAL PHARMACEUTICAL (SUZHOU) CO., LTD., priority 2019, published 2022):
In brackets after ≈: the same amount, converted by molar mass. Read-outs that look alike come from different tables or passages of the source.

Assays:
Type in all cases: physicochemical
Hygroscopicity by DVS = settings: for Weight gain under 80% RH: DVS, 25° C.
Protocol: Dynamic Vapor Sorption (DVS) was measured via an SMS (Surface Measurement Systems Ltd.) intrinsic DVS instrument. Its control software is DVS-Intrinsic control software. Typical parameters for DVS test are as follows: Temperature: 25° C. Gas and flow rate: N2, 200 mL/min dm/dt: 0.002%/min RH range: 0% RH to 95% RH DVS was applied to test the hygroscopicity of Form CSI and WO2014014835 Form A with about 10 mg of samples. The weight gains at each relative humidity were recorded in a cycle of 0-95%-0 RH. XRPD test was applied before and after DVS. Description and definition of hygroscopicity (general notice 9103 drug hygroscopicity test guidelines in 2015 edition of Chinese Pharmacopoeia, test at 25° C.±1° C., 80% RH. The definition of hygroscopicity in the 9th European Pharmacopoeia 5.11 is similar to the Chinese Pharmacopoeia.).

[1] = Physical stability on grinding (XRPD); settings: ground manually for 5 min in a mortar
Protocol: Form CSI and WO2014014835 Form A was ground manually for 5 min in a mortar.

[2] = Kinetic solubility in SGF, FaSSIF, FeSSIF and water
From the text: The parameters for kinetic solubility tests of the present disclosure are as follows:
When solubility test is used to predict the in vivo performance of a drug, it is critical to simulate in vivo conditions as closely as possible. For oral medication, Simulated Gastric Fluid (SGF), Fasted-State Simulated Intestinal Fluid (FaSSIF), Fed-State Simulated Intestinal Fluid (FeSSIF) can be used to simulate the condition in vivo and predict the effects of feeding, thus solubility in such mediums is closer to that in vivo.
20 mg of Form CSI and 20 mg of WO2014014835 Form A were suspended into 4.0 mL of SGF, 4.0 mL of FaSSIF, 4.0 mL of FeSSIF and 4.0 mL of water to get saturated solutions. After equilibrated for 1 h, 4 h, 8 h and 24 h, the concentrations (μg/mL) of Compound I of the saturated solutions were measured by UPLC.

[3] = Compressibility (tablet hardness, tensile strength); settings: 80 mg, compressed at 10 kN
Protocol: ENERPAC manual tablet press was used for compression. 80 mg of Form CSI and WO2014014835 Form A were weighed and added into the dies of a φ6 mm round tooling, compressed at 10 kN, then stored at room temperature for 24 h until complete elastic recovery. Hardness (H) was tested with an intelligent tablet hardness tester. Diameter (D) and thickness (L) were tested with a caliper. Tensile strength of the powder was calculated with the following formula: T=2H/πDL*9.8. Under a certain force, the greater the tensile strength, the better the compressibility.

[4] = Intrinsic dissolution (IDR); settings: for IDR: slope of data within 5-120 minutes
Protocol: The parameters for intrinsic dissolution tests in the present disclosure are as follows:
Approximately 100 mg of Form CSI or WO2014014835 Form A was added into the cavity of the die, and then compressed at 10 kN and held for 0.5 minute to obtain a tablet having a surface area of 0.5 cm^2. The die with the tablet still embedded was put into a dissolution apparatus to test the intrinsic dissolution. The slope (in μg/min) of the regression line was calculated according to the data within 5-120 minutes. IDR (in μg/min/cm^2) was further calculated according to the slope.

Cc1nc(C(=O)NCC(=O)O)c(O)c2ccc(Oc3ccccc3)cc12 [WO2014014835 Form A, [(4-hydroxy-1-methyl-7-phenoxy-isoquinoline-3-carbonyl)-amino]-acetic acid, reference compound]
Weight gain under 80% RH (Hygroscopicity by DVS): 0.21%
Weight gain under 80% RH (Hygroscopicity by DVS; listed as Form A): 0.21%
Hygroscopicity class (Hygroscopicity by DVS; weight gain under 80% RH): slightly hygroscopic
Crystalline form and crystallinity after grinding (XRPD) [1]: decreases after grinding
Crystalline form and crystallinity after grinding (XRPD) ([1]; listed as Form A): decreases after grinding
Kinetic solubility (concentration of Compound I in saturated solution) ([2]; FaSSIF, 1 hour): 241.2 µg/mL
solubility kinetic at 4 h ([2]; FaSSIF, thermodynamic from solid, FaSSIF, 4 hours, read-out: Kinetic solubility (concentration of Compound I in saturated solution)): 569 µg/mL (≈ 1620 µM)
solubility kinetic at 8 h ([2]; FaSSIF, thermodynamic from solid, FaSSIF, 8 hours, read-out: Kinetic solubility (concentration of Compound I in saturated solution)): 567 µg/mL (≈ 1610 µM)
solubility kinetic at 24 h ([2]; FaSSIF, thermodynamic from solid, FaSSIF, 24 hours, read-out: Kinetic solubility (concentration of Compound I in saturated solution)): 570 µg/mL (≈ 1620 µM)
solubility kinetic at 1 h ([2]; FeSSIF, thermodynamic from solid, FeSSIF, 1 hour, read-out: Kinetic solubility (concentration of Compound I in saturated solution)): 146 µg/mL (≈ 415 µM)
solubility kinetic at 4 h ([2]; FeSSIF, thermodynamic from solid, FeSSIF, 4 hours, read-out: Kinetic solubility (concentration of Compound I in saturated solution)): 150 µg/mL (≈ 426 µM)
solubility kinetic at 8 h ([2]; FeSSIF, thermodynamic from solid, FeSSIF, 8 hours, read-out: Kinetic solubility (concentration of Compound I in saturated solution)): 161 µg/mL (≈ 456 µM)
solubility kinetic at 24 h ([2]; FeSSIF, thermodynamic from solid, FeSSIF, 24 hours, read-out: Kinetic solubility (concentration of Compound I in saturated solution)): 269 µg/mL (≈ 762 µM)
Kinetic solubility (concentration of Compound I in saturated solution) ([2]; SGF, 1 hour): 3.6 µg/mL
Kinetic solubility (concentration of Compound I in saturated solution) ([2]; SGF, 4 hours): 3.7 µg/mL
Kinetic solubility (concentration of Compound I in saturated solution) ([2]; SGF, 8 hours): 3.7 µg/mL
Kinetic solubility (concentration of Compound I in saturated solution) ([2]; SGF, 24 hours): 3.6 µg/mL
Kinetic solubility (concentration of Compound I in saturated solution) ([2]; water, 1 hour): 4.7 µg/mL
Kinetic solubility (concentration of Compound I in saturated solution) ([2]; water, 4 hours): 7.9 µg/mL
Kinetic solubility (concentration of Compound I in saturated solution) ([2]; water, 8 hours): 8.4 µg/mL
Kinetic solubility (concentration of Compound I in saturated solution) ([2]; water, 24 hours): 10.1 µg/mL
Tensile strength ([3]; T=2H/πDL*9.8): 0.33 MPa
Hardness ([3]; φ6 mm round tooling, after 24 h): 0.67 kgf
Cumulative dissolution ([4]; pH4.5 PBS, 5 min, 37° C., 0.5 cm^2 tablet): 19.9 µg
Cumulative dissolution ([4]; pH4.5 PBS, 10 min): 24.1 µg
Cumulative dissolution ([4]; pH4.5 PBS, 15 min): 28.7 µg
Cumulative dissolution ([4]; pH4.5 PBS, 20 min): 34.0 µg
Cumulative dissolution ([4]; pH4.5 PBS, 25 min): 36.6 µg
Cumulative dissolution ([4]; pH4.5 PBS, 30 min): 40.2 µg
Cumulative dissolution ([4]; pH4.5 PBS, 45 min): 49.1 µg
Cumulative dissolution ([4]; pH4.5 PBS, 60 min): 59.4 µg
Cumulative dissolution ([4]; pH4.5 PBS, 90 min): 80.0 µg
Cumulative dissolution ([4]; pH4.5 PBS, 120 min): 98.2 µg
IDR ([4]; pH4.5 PBS): 1.3454 μg/min/cm^2
Cumulative dissolution ([4]; pH6.8 PBS, 5 min, 37° C., 0.5 cm^2 tablet): 439.4 µg
Cumulative dissolution ([4]; pH6.8 PBS, 10 min): 815.5 µg
Cumulative dissolution ([4]; pH6.8 PBS, 15 min): 1158.2 µg
Cumulative dissolution ([4]; pH6.8 PBS, 20 min): 1488.8 µg
Cumulative dissolution ([4]; pH6.8 PBS, 25 min): 1800.6 µg
Cumulative dissolution ([4]; pH6.8 PBS, 30 min): 2110.0 µg
Cumulative dissolution ([4]; pH6.8 PBS, 45 min): 2853.7 µg
Cumulative dissolution ([4]; pH6.8 PBS, 60 min): 3624.8 µg
Cumulative dissolution ([4]; pH6.8 PBS, 90 min): 5068.5 µg
Cumulative dissolution ([4]; pH6.8 PBS, 120 min): 6427.1 µg
IDR ([4]; pH6.8 PBS): 102.8372 μg/min/cm^2
